Source: ChEMBL document CHEMBL1201862, “PubChem BioAssay data set” (2004)
Each block holds one compound with its values, some of them ahead of it. The source made the active and inactive calls.

How the values were obtained:
[1] = target: Peroxisome proliferator-activated receptor gamma/Nuclear receptor coactivator 3 (Homo sapiens, UniProt P37231); assay type: functional;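 also: agonist potency for raising coactivator recruitment to the receptor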
[2] = target: Peroxisome proliferator-activated receptor gamma/Nuclear receptor coactivator 2 (Homo sapiens, UniProt P37231); assay type: functional;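 also: agonist potency for raising coactivator recruitment to the receptor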
[3] = target: T1, Calpain-2 catalytic subunit (Sus scrofa, UniProt P43367); experiment: pig calpain II inhibitor potency, dose response, biochemical, fluorogenic peptide substrate (AID 1420); assay type: functional
T1 sequence (P43367 whole entry): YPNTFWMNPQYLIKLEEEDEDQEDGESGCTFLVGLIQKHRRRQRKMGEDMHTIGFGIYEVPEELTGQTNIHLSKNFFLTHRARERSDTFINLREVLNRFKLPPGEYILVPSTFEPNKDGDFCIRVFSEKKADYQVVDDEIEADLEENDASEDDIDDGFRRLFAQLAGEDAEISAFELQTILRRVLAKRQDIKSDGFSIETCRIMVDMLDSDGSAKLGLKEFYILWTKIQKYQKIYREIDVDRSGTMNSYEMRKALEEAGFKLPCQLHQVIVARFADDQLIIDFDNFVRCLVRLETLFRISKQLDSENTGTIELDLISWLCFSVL

[4] = target: Eukaryotic translation initiation factor 4E (Mus musculus, UniProt P63073); experiment: eIF4E–eIF4G protein interaction inhibitors, dose response, biochemical, TR-FRET (AID 855); assay type: functional;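 also: potency for disrupting eIF4E binding to eIF4GI seen as loss of FRET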
[5] = target: Peroxisome proliferator-activated receptor gamma/Nuclear receptor coactivator 1 (Homo sapiens, UniProt P37231); assay type: functional;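 also: agonist potency as compounds enhance coactivator SRC-1 recruitment to PPARgamma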
[6] = target: Glyceraldehyde-3-phosphate dehydrogenase (Homo sapiens, UniProt P04406)
[7] = target: T2, Intestinal-type alkaline phosphatase (Homo sapiens, UniProt P09923); experiment: human intestinal alkaline phosphatase activators, dose response, biochemical, luminescence, uHTS hits (AID 463120); assay type: functional
[8] = target: T2, Intestinal-type alkaline phosphatase; experiment: human IAP activators, dose response, biochemical, luminescent, uHTS hits, set 2 (AID 488817); assay type: functional;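 also: potency of activators that raise enzyme activity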
[9] = target: Intestinal-type alkaline phosphatase (Mus musculus, UniProt P24822); experiment: PubChem AID 488874; assay type: functional
[10] = target: Alkaline phosphatase, placental type (Homo sapiens, UniProt P05187); experiment: PLAP enzyme inhibitors, confirmation, biochemical, luminescence (AID 1512); assay type: functional
[11] = test system: HEK293; experiment: cells; assay type: functional, cell-based; settings: Homo sapiens
[12] = test system: HEK293; experiment: cells; assay type: functional, cell-based; settings: Homo sapiens; remark: listed apart in the source
[13] = target: Nucleotide-binding oligomerization domain-containing protein 2 (Homo sapiens, UniProt Q9HC29); experiment: NOD2 signaling inhibitors, cell-based, luminescence, uHTS, HEK293 (AID 1566); assay type: functional
[14] = target: G-protein coupled receptor 55 (Homo sapiens, UniProt Q9Y2T6); experiment: GPR55 agonists via beta-arrestin recruitment, primary screen, imaging, U2OS cells, beta-arrestin-GFP redistribution (AID 1961); assay type: functional
[15] = target: Paired box protein Pax-8 (Homo sapiens, UniProt Q06710); experiment: inhibitors of PAX8-driven TPO luciferase reporter, dose response, RMG-I cells, cherry-pick (AID 687027); assay type: functional, cell-based;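 also: luciferase reporter driven by Pax8 target thyroperoxidase promoter measured by SteadyGlo luminescence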
[16] = HepG2 cell cytotoxicity, dose response, cytotoxicity control for Shn3 inhibitor project, CellTiter-Glo, cherry-picked (AID 624134); assay type: functional, cell-based
[17] = Shn3 3'UTR reporter inhibitors, dose response, cell-based, Clone20 osteoblasts, firefly luciferase, cherry-picked (AID 624132); assay type: functional;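 also: firefly luciferase luminescence from reporter carrying the Shn3 3'UTR in osteoblasts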
[18] = test system: HEK293; experiment: NOD1 signaling inhibitors, primary screen, cell-based, luminescence, uHTS (AID 1578); assay type: functional; settings: Homo sapiens
[19] = control 3'UTR Renilla luciferase suppression, dose response, counter-screen for Shn3 inhibitor project, cell-based, Clone20-Shn3RL, cherry-picked (AID 624133); assay type: functional
[20] = test system: HEK293; experiment: cells; assay type: functional, cell-based; settings: Homo sapiens; remark: listed apart in the source
[21] = test system: HEK293; experiment: NOD2 signaling inhibitors in MDP-stimulated cells, cell-based, uHTS, luminescence (AID 2001); assay type: functional; settings: Homo sapiens
[22] = non-specific cell cytotoxicity, dose response, cytotoxicity control for PAX8 inhibitor project, plate reader, dry powder samples (AID 743021); assay type: functional, cell-based

Sequence of Alkaline phosphatase, placental type (P05187 whole entry): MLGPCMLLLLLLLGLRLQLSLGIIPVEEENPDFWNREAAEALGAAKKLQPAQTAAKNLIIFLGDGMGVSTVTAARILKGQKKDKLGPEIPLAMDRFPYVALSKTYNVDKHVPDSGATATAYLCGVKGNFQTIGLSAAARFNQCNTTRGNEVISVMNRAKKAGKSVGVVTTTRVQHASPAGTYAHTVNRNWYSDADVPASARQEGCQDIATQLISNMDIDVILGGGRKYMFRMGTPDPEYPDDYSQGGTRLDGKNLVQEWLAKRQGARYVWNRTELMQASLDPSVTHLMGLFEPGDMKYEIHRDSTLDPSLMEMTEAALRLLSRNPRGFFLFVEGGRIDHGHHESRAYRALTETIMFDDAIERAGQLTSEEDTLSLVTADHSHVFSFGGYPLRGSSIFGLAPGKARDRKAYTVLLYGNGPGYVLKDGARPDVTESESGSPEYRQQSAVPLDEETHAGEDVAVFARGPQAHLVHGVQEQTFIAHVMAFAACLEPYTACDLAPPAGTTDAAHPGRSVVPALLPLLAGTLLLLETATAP
T2 sequence (P09923 whole entry): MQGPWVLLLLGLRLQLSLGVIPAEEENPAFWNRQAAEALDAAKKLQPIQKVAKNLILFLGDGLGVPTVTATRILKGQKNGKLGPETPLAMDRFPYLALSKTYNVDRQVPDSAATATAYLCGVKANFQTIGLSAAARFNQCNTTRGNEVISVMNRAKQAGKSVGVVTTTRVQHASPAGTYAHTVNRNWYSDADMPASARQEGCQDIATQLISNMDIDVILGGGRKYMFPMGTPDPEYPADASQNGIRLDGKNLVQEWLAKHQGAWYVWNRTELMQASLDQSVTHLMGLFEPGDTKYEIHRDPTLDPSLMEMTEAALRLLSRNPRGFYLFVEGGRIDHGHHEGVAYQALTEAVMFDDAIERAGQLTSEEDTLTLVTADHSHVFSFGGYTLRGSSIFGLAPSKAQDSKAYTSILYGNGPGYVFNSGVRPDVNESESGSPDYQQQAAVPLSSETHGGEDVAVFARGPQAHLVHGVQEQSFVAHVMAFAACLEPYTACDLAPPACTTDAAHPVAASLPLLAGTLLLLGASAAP
Sequence of Peroxisome proliferator-activated receptor gamma/Nuclear receptor coactivator 2 (P37231 whole entry): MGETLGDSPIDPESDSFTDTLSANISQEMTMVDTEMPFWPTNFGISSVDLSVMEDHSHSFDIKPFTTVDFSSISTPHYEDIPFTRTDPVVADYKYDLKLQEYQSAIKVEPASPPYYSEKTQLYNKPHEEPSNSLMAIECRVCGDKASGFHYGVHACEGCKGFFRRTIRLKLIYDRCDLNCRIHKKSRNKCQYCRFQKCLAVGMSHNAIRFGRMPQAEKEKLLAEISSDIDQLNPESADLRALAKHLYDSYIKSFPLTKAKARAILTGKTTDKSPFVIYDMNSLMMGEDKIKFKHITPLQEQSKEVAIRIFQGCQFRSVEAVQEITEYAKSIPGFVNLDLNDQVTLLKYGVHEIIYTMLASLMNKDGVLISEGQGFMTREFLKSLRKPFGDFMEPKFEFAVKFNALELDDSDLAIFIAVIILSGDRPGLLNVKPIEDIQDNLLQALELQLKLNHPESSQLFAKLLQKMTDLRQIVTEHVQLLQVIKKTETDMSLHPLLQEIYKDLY
Sequence of Peroxisome proliferator-activated receptor gamma/Nuclear receptor coactivator 2 (Q15596 whole entry, further chain): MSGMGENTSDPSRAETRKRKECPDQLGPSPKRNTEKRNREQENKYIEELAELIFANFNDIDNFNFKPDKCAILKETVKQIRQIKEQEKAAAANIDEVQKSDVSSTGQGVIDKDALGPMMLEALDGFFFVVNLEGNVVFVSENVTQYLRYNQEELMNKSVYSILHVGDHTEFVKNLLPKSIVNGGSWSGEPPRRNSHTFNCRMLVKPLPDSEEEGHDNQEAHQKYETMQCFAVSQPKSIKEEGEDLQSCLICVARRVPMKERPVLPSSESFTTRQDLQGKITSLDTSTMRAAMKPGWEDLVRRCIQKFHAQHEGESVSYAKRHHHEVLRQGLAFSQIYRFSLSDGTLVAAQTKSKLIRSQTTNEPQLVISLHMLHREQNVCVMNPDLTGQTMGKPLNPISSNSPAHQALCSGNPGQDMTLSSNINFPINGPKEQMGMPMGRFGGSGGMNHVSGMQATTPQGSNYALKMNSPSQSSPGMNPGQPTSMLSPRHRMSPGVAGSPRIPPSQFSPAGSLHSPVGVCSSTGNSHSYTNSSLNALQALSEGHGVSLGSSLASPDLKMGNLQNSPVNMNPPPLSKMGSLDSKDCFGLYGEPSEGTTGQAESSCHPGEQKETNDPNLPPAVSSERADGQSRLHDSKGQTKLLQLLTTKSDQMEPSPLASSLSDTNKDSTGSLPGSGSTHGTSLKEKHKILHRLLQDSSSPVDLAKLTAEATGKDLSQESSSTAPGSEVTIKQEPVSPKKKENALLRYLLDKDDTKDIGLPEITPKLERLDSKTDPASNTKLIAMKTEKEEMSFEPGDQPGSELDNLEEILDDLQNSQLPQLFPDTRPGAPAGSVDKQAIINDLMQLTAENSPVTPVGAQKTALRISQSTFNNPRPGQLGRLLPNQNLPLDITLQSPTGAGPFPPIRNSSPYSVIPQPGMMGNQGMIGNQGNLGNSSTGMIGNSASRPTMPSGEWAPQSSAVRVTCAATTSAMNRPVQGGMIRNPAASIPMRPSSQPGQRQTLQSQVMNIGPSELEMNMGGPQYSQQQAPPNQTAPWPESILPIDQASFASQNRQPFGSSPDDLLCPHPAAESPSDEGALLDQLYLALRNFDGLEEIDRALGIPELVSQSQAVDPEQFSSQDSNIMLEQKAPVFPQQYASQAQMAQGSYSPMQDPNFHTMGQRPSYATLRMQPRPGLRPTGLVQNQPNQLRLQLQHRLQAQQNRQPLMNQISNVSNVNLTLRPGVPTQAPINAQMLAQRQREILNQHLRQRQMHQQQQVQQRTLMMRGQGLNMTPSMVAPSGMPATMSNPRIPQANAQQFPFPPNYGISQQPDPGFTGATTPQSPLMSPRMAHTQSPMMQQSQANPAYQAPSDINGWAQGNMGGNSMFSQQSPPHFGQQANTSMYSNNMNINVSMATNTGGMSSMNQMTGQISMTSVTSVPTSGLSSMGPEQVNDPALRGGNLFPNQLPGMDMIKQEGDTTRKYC
Sequence of Peroxisome proliferator-activated receptor gamma/Nuclear receptor coactivator 1 (P37231 whole entry): as the sequence (P37231 whole entry) above
Sequence of Peroxisome proliferator-activated receptor gamma/Nuclear receptor coactivator 1 (Q15788 whole entry, further chain): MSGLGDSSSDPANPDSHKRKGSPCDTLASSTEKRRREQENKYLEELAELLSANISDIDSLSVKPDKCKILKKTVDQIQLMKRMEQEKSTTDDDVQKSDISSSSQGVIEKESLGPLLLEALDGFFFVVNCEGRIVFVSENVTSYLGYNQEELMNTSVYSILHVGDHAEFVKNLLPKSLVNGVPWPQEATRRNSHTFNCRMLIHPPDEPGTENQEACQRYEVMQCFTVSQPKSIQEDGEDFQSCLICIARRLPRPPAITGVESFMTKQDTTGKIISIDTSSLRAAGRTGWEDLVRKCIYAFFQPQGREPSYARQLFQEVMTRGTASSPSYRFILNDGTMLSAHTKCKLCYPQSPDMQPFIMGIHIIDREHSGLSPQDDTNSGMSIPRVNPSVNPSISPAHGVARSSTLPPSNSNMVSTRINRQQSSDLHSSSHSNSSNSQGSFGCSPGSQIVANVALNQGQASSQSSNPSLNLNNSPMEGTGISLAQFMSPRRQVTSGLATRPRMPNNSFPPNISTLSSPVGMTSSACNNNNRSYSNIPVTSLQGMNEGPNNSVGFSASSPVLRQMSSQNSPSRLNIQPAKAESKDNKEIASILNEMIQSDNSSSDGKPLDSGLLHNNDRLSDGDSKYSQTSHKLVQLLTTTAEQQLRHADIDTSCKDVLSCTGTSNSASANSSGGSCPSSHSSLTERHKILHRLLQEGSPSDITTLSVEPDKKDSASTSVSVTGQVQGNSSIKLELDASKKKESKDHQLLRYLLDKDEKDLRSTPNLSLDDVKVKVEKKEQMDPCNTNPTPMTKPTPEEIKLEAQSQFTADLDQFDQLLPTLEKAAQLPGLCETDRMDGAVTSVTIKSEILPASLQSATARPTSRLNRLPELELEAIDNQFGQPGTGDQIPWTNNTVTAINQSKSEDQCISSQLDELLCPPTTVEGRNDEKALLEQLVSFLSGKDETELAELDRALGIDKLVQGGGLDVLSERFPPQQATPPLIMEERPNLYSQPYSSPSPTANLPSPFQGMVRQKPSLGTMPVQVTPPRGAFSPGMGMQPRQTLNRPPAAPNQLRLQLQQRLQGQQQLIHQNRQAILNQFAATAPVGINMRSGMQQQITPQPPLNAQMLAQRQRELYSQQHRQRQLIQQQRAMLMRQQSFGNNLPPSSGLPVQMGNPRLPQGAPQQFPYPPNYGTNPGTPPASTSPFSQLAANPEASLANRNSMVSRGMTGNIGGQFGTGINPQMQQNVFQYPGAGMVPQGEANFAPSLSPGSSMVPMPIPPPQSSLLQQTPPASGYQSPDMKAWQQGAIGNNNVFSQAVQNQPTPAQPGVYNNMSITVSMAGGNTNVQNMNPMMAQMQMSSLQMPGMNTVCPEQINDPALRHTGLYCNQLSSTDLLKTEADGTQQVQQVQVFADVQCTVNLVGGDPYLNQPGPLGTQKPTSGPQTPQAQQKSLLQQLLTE

EC50 [1]: > 79.4 µM (not active)
EC50 [2]: > 79.4 µM (not active)
IC50 [3]: 9.36 µM (not active)
IC50 [4]: > 64 µM (inactive)
EC50 [5]: > 79.4 µM (not active)
Compound: NS(=O)(=O)c1ccc(NC(=S)NCc2ccc(Cl)cc2)cc1

IC50 [6]: > 10 µM (inconclusive)
EC50 [7]: 10.7 µM (active)
EC50 [8]: 21 µM (active)
IC50 [9]: > 100 µM (inactive)
IC50 [10]: > 100 µM (inactive)
Compound: Cc1cc(OCC(=O)Nc2nc[nH]n2)ccc1Cl

Compound: CCOc1ccc(C(=O)C(CCC(CN(C)C)C(=O)c2ccc(OCC)cc2)CN(C)C)cc1 (configuration not stated)
IC50 [11]: > 20 µM (inactive)
IC50 [12]: 1.53 µM (active)
EC50 [13]: > 20 µM (inactive)
EC50 [14]: > 32 µM (inactive)
AC50 [15]: 4.27 µM (active)
AC50 [16]: 6.77 µM (active)
AC50 [17]: 1.61 µM (active)
EC50 [18]: 15.9 µM (active)
AC50 [19]: 7.72 µM (active)
IC50 [20]: 6.72 µM (active)
IC50 [21]: 2.48 µM (active)
AC50 [22]: 36.7 µM (active)
